Structures are written as SMILES.

With `Cc1ncccn1`, the logP is -0.05.

The molecule `Clc1cccnn1` displayed a logP of 0.1.

`CN(C)c1ccncn1` had a logP of 0.58.

In turn, `N#Cc1ccnnc1` returned a logP of -0.63.

As for `CSc1ncccn1`, the logP is 1.01.

For the molecule `COc1cccnn1`, the logP stood at 0.08.

Molecule `Nc1ccncn1` came in with a logP of -0.25.

`CC(=O)Nc1ccncn1` yielded a logP of 0.03.

Regarding `Cc1cncnc1`, the logP came to 0.01.

Take `Nc1cnc(Cl)cn1`: the logP stood at 0.67.

Consider `CCOC(=O)c1ncccn1`, for which the logP was -0.31.

Consider `COc1cncnc1`, for which the logP came out at 0.07.

`NC(=O)c1ccncn1` came in with a logP of -0.68.

`COC(=O)c1cccnn1` yielded a logP of -0.43.

In turn, `CCOC(=O)c1ccnnc1` came in with a logP of 0.23.

As to `CN(C)c1ncccn1`, the logP was 1.07.

Molecule `NC(=O)c1cccnn1` showed a logP of -0.73.

Molecule `CCCCc1nc(C#N)c(C#N)nc1C` showed a logP of 2.3.

In turn, `Cc1cccnn1` registered a logP of -0.35.

In turn, `COC(=O)c1ncccn1` registered a logP of -0.71.

For `CCOc1cccnn1`, the logP is 0.63.

Take `CC(=O)Nc1cncnc1`: the logP is -0.22.

As for `Nc1ccnnc1`, the logP was -0.53.

For `NC(=O)c1ccnnc1`, the logP was -0.96.

Molecule `COc1ccnnc1` displayed a logP of -0.31.

Consider `CCOC(=O)c1cncnc1`, for which the log partition coefficient (logP) amounted to 0.52.

In turn, `CCOc1ncccn1` showed a logP of 0.74.

On to `CN(C)c1cncnc1`, for which the logP stood at 0.46.

The molecule `N#Cc1ncc(Cl)nc1C#N` displayed a lipophilicity (logP) of 0.95.

In turn, `Fc1ncccn1` returned a logP of 0.02.

For `Clc1ncccn1`, the logP was found to be 0.36.

Molecule `CCOc1nccnc1C` gave a logP of 1.82.

`COc1ccncn1` gave a logP of 0.54.

Take `NC(=O)c1ncccn1`: the logP is -1.2.

`COC(=O)c1ccncn1` had a log partition coefficient (logP) of -0.27.

`N#Cc1ncccn1`: the logP was -0.31.

`COC(=O)c1ccnnc1`: the logP is -0.27.

`Cc1ccnnc1` yielded a logP of -0.32.

`CCOc1cncnc1` gave a logP of 0.56.

Turning to `Fc1cncc(F)n1`, the logP was 0.74.

As for `NC(=O)c1cncnc1`, the logP was -0.92.

`CCc1nccnc1OC`: the logP is 1.8.

The molecule `COC(=O)c1cncnc1` displayed a logP of 0.03.

For the molecule `COC(=O)c1ccoc1`, the logP was 1.28.

The values are drawn from the OPERA property sets (Mansouri et al. 2018).
